Test results published in patent publication US7863330B2, “Deloxiglumide and proton pump inhibitor combination in the treatment of gastrointestinal disorders” (Rottapharm S.p.A., priority 2006, dated 2011).

Key:
CCK1 receptors = molecular target: T1, CCK1 receptors (Homo sapiens, UniProt P32238); details: cited from earlier work
T1 sequence (P32238 1-428): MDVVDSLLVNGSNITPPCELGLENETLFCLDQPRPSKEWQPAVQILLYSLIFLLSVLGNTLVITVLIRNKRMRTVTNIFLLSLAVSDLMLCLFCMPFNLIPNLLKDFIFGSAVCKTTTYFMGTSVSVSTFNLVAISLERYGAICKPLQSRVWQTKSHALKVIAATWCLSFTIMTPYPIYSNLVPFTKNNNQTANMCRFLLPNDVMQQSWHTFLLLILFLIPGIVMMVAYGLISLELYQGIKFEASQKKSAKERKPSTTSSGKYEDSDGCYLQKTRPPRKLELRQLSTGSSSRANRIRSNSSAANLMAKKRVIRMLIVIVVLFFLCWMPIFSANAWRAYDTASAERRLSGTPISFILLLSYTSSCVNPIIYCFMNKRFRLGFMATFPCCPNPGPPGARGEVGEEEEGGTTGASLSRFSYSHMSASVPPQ

[1] = tested on: endogenous and exogenous CCK; details: cited from earlier work
[2] = tested on: CCK-induced delay in gastric emptying; details: healthy subjects; cited from earlier work
[3] = tested on: CCK release in response to duodenal lipid infusion; details: healthy subjects, cited from earlier work
[4] = tested on: antro-pyloroduodenal dysmotility; details: healthy subjects; intraduodenal infusion of a mixed liquid meal; cited from earlier work
nonulcer dyspepsia = details: cited from earlier work
CCK2 receptors = molecular target: T2, CCK2 receptors (Homo sapiens, UniProt P32239); details: cited from earlier work
T2 sequence (P32239 1-447): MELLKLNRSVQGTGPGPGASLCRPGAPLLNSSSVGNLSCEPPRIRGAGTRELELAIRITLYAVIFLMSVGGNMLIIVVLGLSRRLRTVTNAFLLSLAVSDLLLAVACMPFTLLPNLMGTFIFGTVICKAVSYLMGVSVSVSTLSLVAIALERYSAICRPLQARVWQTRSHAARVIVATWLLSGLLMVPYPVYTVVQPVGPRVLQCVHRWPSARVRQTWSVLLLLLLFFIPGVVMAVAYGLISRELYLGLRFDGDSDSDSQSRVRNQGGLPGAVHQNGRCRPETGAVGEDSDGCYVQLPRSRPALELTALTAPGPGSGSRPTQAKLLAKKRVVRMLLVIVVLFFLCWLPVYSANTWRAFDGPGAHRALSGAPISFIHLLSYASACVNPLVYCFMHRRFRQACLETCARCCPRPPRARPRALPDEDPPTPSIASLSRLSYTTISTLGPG

[5] = tested on: acute reflux esophagitis in pylorus-ligated rats; assay: Acute reflux esophagitis in pylorus- and limiting ridge-ligated rats; type: in vivo; design: key to Average Score lesions: lesion index 0 = no lesion to 6 = hemorrhage >40 mm/perforation; details: for ED50: Rattus norvegicus, intraduodenal, compound administered separately, intraduodenally, from dose-response regression line, read-out: ED50 (dose which reduces the esophagus lesions by 50%); for % Effect vs. control: after 3 hours; for Average Score lesions: esophagus lesion index 0-6 after 3 hours
Experimental: Male rats of 175-200 g body weight were fasted for 24 hours prior the experiment. Water was allowed ad libitum. Under ether anesthesia, the abdomen was incised along the midline, and both pylorus and limiting ridge (transitional region between the forestomach and corpus) were simultaneously ligated. Consequently, the total capacity of the stomach to hold gastric juice was greatly diminished, resulting in reflux of gastric juice into the esophagus. Following ligation of pylorus and limiting ridge, the test compounds were given intraduodenally (5 ml/kg), and the abdomen was closed by suturing. After 3 hours, rats were killed by ether overdose and the gastroesophageal portion was excised. The lesion in the thoracic esophagus was scored macroscopically, using a lesion index according to the following criteria: no lesion as 0; edema as 1; reddening as 2; the length of hemorrhagic area<20 mm as 3; the length of hemorrhagic area 20-30 mm as 4; the length of hemorrhagic area 30-40 mm as 5; the length of hemorrhagic area>40 mm or perforation as 6.
The doses of the tested compounds which reduce of 50% the esophagus lesions (ED50) and their P=0.05 fiducial limits were calculated from the dose-response regression line.

functional dyspepsia = details: patients with functional dyspepsia; duodenal infusion of lipid with or without balloon distension; compared to placebo; cited from earlier work
[6] = tested on: gastrointestinal motility; details: preclinical and clinical studies; cited from earlier work

## CCCCCN(CCCOC)C(=O)C(CCC(=O)O)NC(=O)c1ccc(Cl)c(Cl)c1 (racemic) [Loxiglumide, R,S-4-(3,4-dichlorobenzoylamino)-5-(N-3-methoxypropyl-pentylamino)-5-oxo-pentanoic acid]
CCK1 receptors
  potency and specificity as CCK receptor antagonist: potent, specific competitive antagonists
[1]
  activity after oral administration: active after oral administration
[2]
  exogenous and endogenous CCK-induced delay in gastric emptying of liquids and solids: reduced
[3]; duodenal infusion of lipid
  proximal gastric relaxation: the relaxation was reversed
[3]; duodenal infusion of lipids
  intragastric pressure: able to reverse the lowering of intragastric pressure
[4]
  antro-pyloroduodenal dysmotility: modulated antro-pyloroduodenal dysmotility
Nonulcer dyspepsia; patients with non-ulcer dyspepsia, 8-week study
  dyspeptic symptoms: significantly improved dyspeptic symptoms
Nonulcer dyspepsia; patients with nonulcer dyspepsia and delayed gastric emptying, comparison to placebo
  gastric emptying: accelerate gastric emptying

## CCCN(CCC)C(=O)C(CCC(=O)O)NC(=O)c1ccccc1 (stereo not drawn) [proglumide]
CCK1 receptors
  potency and specificity as CCK receptor antagonist: low potency and specificity
CCK2 receptors
  binding to CCK2 receptors: effectively binds CCK2 receptors

## COc1ccc2[nH]c([S+]([O-])Cc3ncc(C)c(OC)c3C)nc2c1 (stereo not drawn) [Omeprazole]
[5]
  ED50: 5.4 mg/kg
[5]; dose 0.1 mg/kg intraduodenally
  % Effect vs. control: 3.4%
  Average Score lesions: 5.6
[5]; dose 0.3 mg/kg intraduodenally
  % Effect vs. control: 0%
  Average Score lesions: 5.8
[5]; dose 1.0 mg/kg intraduodenally
  % Effect vs. control: 14.3%
  Average Score lesions: 4.8
[5]; dose 3.0 mg/kg intraduodenally
  % Effect vs. control: 53.4%
  Average Score lesions: 2.7

## CCCCCN(CCCCC)C(=O)C(CCC(=O)O)NC(=O)c1ccc(Cl)c(Cl)c1 (racemic) [Lorglumide, R,S-4-[(3,4-Dichlorobenzoyl)amino]-5-(dipentylamino)-5-oxopentanoic acid]
CCK1 receptors
  potency and specificity as CCK receptor antagonist: potent, specific competitive antagonists
[1]
  activity after oral administration: active after oral administration

## CCCCCN(CCCOC)C(=O)[C@@H](CCC(=O)O)NC(=O)c1ccc(Cl)c(Cl)c1 [Dexloxiglumide, R-4-(3,4-dichlorobenzoylamino)-5-(N-3-methoxypropyl-pentylamino)-5-oxo-pentanoic acid]
[5]
  ED50: 37.5 mg/kg
[5]; dose 10 mg/kg intraduodenally
  % Effect vs. control: 0%
  Average Score lesions: 5.8
[5]; dose 20 mg/kg intraduodenally
  % Effect vs. control: 17.2%
  Average Score lesions: 4.8
[5]; dose 40 mg/kg intraduodenally
  % Effect vs. control: 51.7%
  Average Score lesions: 2.6
[5]; dose 60 mg/kg intraduodenally
  % Effect vs. control: 62.1%
  Average Score lesions: 2.2
[5]; dose 100 mg/kg intraduodenally
  % Effect vs. control: 100%
  Average Score lesions: 0
CCK1 receptors; anti-CCK activity
  potency relative to the racemic compound (loxiglumide): approximately twice
[3]; duodenal lipid infusion
  tolerance to water volume: reversed the diminished tolerance to water volume
Functional dyspepsia
  dyspepsia symptom scores: significantly improved dyspepsia symptom scores
[6]
  colonic transit: accelerates colonic transit
  gallbladder contraction: effective inhibitor of gallbladder contraction
  gastric emptying: accelerates gastric emptying
  lower esophageal sphincter (LES) function: improves lower esophageal sphincter (LES) function
